{"source": "patent US20030185914A1", "about": "“Process for isolating artemisinin from artemisia annua” (priority 2002, published 2003)", "test": "Partitioning of pure artemisinin between hexane and aqueous ethanol (1:1 v/v), layers quantified by TLC", "format": "physicochemical", "experimental": "To select an efficient solvent for extraction of artemisinin different solvents systems were tested. For this 10 g of dry powdered leaves of Artemisia annua were extracted with methanol, 20% aqueous methanol, ethanol, 20% aqueous ethanol or hexane as a solvent individually in separate tubes. 10 ml of the solvent was taken out of the tube at 2, 4 and 6 h of incubation. The fraction was evaporated to dryness on a water bath, extract was solubilized in 2.0 ml solvent and spots (5 μl) were loaded on a TLC plate along with pure artemisinin dissolved in the respective solvent @ 1 mg/ml taken as controls. The TLC was carried out in a glass TLC tank saturated with the mobile phase hexane:diethyl ether (1:1), plates were developed to a height of 15 cm. Later plates were dried and spots were visualized by immersing the plates in a developing reagent (glacial acetic acid:sulfuric acid:anisaldehyde, 50:1:0.5), followed by heating the plate at 110° C. for 15 minutes or until pink spots of artemisinin appeared. For quantification, TLC spots corresponding to artemisinin were scanned at 540 and 610 nm dual wavelength mode of TLC scanner. It is clear from the table that pure ethanol and methanol rapidly extract the artemisinin as compared to hexane, however after a certain period of time concentration of artemisinin starts diminishing in methanol and ethanol extracts in contrast to hexane extract possibly because of decomposition or transformation of artemisinin into another unknown compound. Mixing of water in methanol caused a severe decay of artemisinin extraction. Ethanol was more efficient for extracting more artemisinin in less time period as compared to methanol and hexane both. On the basis of lower cost and rapid extraction efficiency ethanol will be a suitable solvent.\nPure artemisinin (0.2 g) was dissolved in different test tubes containing 1:1 (v/v) mixture of two non-miscible solvents, hexane and aqueous ethanol (i.e. ethanol mixed in water), where concentration of ethanol varied from 20 to 80%. After completely solubilizing the artemisinin in the mixture, two layers of hexane and ethanol were separated with the help of a separating funnel. The individual layer from different test tube was tested for the presence of artemisinin content by TLC as in example 1. The results showing the % fraction of artemisinin partitioned between the hexane and aqueous ethanolic layers separated from each tube are given in the Table -2.", "key": {"[1]": {"conditions": "Hexane:20% aqueous-ethanol (1:1 v/v)"}, "[2]": {"conditions": "Hexane:40% aqueous-ethanol (1:1 v/v)"}, "[3]": {"conditions": "Hexane:60% aqueous-ethanol (1:1 v/v)"}, "[4]": {"conditions": "Hexane:80% aqueous-ethanol (1:1 v/v)"}}}
{"smiles": "C[C@@H]1CC[C@H]2[C@@H](C)C(=O)O[C@@H]3O[C@@]4(C)CC[C@@H]1[C@]32OO4", "note": "[artemisinin]", "values": [{"measurement": "% artemisinin in ethanol layer", "setting": "[1]", "result": 100, "unit": "%"}, {"measurement": "% artemisinin in hexane layer", "setting": "[1]", "result": 0, "unit": "%"}, {"measurement": "% artemisinin in ethanol layer", "setting": "[2]", "result": 90, "unit": "%"}, {"measurement": "% artemisinin in hexane layer", "setting": "[2]", "result": 10, "unit": "%"}, {"measurement": "% artemisinin in ethanol layer", "setting": "[3]", "result": 30, "unit": "%"}, {"measurement": "% artemisinin in hexane layer", "setting": "[3]", "result": 70, "unit": "%"}, {"measurement": "% artemisinin in ethanol layer", "setting": "[4]", "result": 0, "unit": "%"}, {"measurement": "% artemisinin in hexane layer", "setting": "[4]", "result": 100, "unit": "%"}]}
